# Test results taken from patent US10364230B2, “Chromene-2 derivatives and use thereof in the treatment of fibrosis” (ALTAY THERAPEUTICS, INC., priority 2014, dated 2019).
# Experiments:
# [1] = test system: TGFbeta-induced secreted collagen synthesis in L929 cells; test: TGFbeta-induced secreted collagen in L929 cells (anti-collagen type I ELISA); format: cell-based; conditions: 50 micromole CP1, 5 ng/ml Mouse TGFβ2, 72 hours, culture supernatant, FIG. 3
# Source text: (§1) The present invention is about novel compounds which may offer alternative treatment options against IPF, which believed to develop as a consequences of smoking, pollution, allergens, toxins and seen in people who are older than 50 years old. The compounds mentioned in this application have been generated from “6,7-dimethoxy 2H-chromen-one (1), which was identified from local medicinal plants during our screening studies. The anti-fibrotic activity of this compound (“6,7-dimethoxy 2H-chromen-one (I) against TGF beta-induced collagen synthesis using 1.929 cells has been identified. For this, in 96-well plates, 1.929 cells were cultured in DMEM supplemented with % 10 serum, 10 μg/ml ascorbic acid and 20 μM prolin until they reached to confluency. Confluent cells were treated with 50 micromole of our compound (named as CP1) dissolved in DMSO for 1 hour, then 5 ng/ml of Mouse TGFβ2 was added and cells were further incubated for 72 hours at incubator supplied with 5% CO2 and 80% humidity. At the end of this incubation one of the plate was used to determine cell viability by using MTT test, FIG. 2. The second 96-well plate was used to determine the level of total collagen. […] Absorbance of developed color was determined at 600 nm. […] In addition to total collagen, we also determined the level of “secreted collagen” by using ELISA. […]
# [2] = test system: TGFbeta-induced collagen synthesis in L929 cells; test: TGFbeta-induced total collagen synthesis in L929 cells (sircol dye); format: cell-based; conditions: 50 micromole CP1 for 1 hour, then 5 ng/ml Mouse TGFβ2, 72 hours, FIG. 1
# Source text: as §1
structure (smiles),measurement,setting,value
"COc1cc2ccc(=O)oc2cc1OC [CP1, 6,7-dimethoxy 2H-chromen-2-one]",effect on TGFβ-induced secreted collagen level,[1],significantly inhibits
same,"TGFβ-induced collagen level in the presence of CP1, compared to control cells",[2]; TGFβ alone induced % 20,10%
same,inhibition of TGFβ-induced collagen synthesis,"[2]; total collagen, sircol, absorbance 600 nm",50%
